According to patent US9260393B2, “Solid state forms of N-((S)-2,3-dihydroxy-propyl)-3-(2-fluoro-4-iodo-phenylamino)-isonicotinamide” (Merck Patent GmbH, priority 2012, dated 2016):
Converted amounts (≈) assume the structure as drawn. “Also recorded” adds a separate entry of the source.

Tests used:
Assay type in all cases: physicochemical
[1] = Thermal behaviour (DSC and TGA); conditions: heating rate 5 K/min
Description: (§1) The DSC scan of Form A1 was acquired on a Mettler-Toledo DSC 821 with a heating rate of 5 K/min, using nitrogen purge gas at 50 mL/min. […] Form A1 can be classified as non-hygroscopic according to Ph. Eur. Criteria (section 5.11.).
The DSC scan of Form A2 was acquired on a Mettler-Toledo DSC 821 with a heating rate of 5 K/min, using nitrogen purge gas at 50 mL/min. […] Eur. Criteria (section 5.11.).
DSC scan of Form B1 was acquired on a Mettler-Toledo DSC 821 with a heating rate of 5 K/min, using nitrogen purge gas at 50 mL/min. […] Eur. criteria.
(§2) Eur. criteria. […] Water Vapour Sorption isotherm was acquired on a DVS-1 System from SMS. • Solubility in USP phosphate buffer (pH 7.4) at 37° C. was determined to be approx. 70 μg/mL (see Example 7).

[2] = Solvent-mediated competitive slurry conversion experiments with binary phase mixtures of Forms B1+B2; conditions: RT and 50° C.
Description: Approximately 10 mg of Compound C (free base) crystalline form B1 and approx. 5 mg of Compound C (free base) crystalline form B2 were dispersed in 200-1000 μL solvent in 4-mL glass vials. A PTFE-coated magnetic stirring bar was inserted into the dispersions, and the vials were tightly closed with a screw cap containing a septum. Dispersions were agitated for 5 days on a magnetic stirrer at ambient conditions (˜23° C.) and 50° C., respectively. Dispersions were then vacuum-filtrated over a Whatman paper filter, and collected filter residues were analysed by X-Ray-Diffraction for identity with the initially used materials.

[3] = API dissolution studies in Flow-Through-Cell system; conditions: for % dissolved levels after 30 minutes: flow rate 16 mL/min; for dissolution in various buffer systems: 37° C., pH range 1.2 to 6.8
Description: Approximately 10 mg of Forms A1, A2 or B1, respectively, were accurately weighed and blended with 2 g glass beads in a Vortex mixer. The blends were then placed into a powder cell of a Flow-Through-Cell system. Dissolution studies were performed at 37° C. over 30-60 minutes at a constant flow rate of 16 mL/min. Fractions of dissolution medium after passing the Flow-Through-Cell were collected in 1 minute intervals in the first 10 minutes, in 5 minute intervals from 10-30 minutes, and in 15 minute intervals from 30-60 minutes. Dissolved levels of API in each fraction were analysed by HPLC. In dissolution experiments with HCl salt forms at pH 5.0 and pH 6.8, free base fractions which precipitated over time from the initially clear solutions in the collected dissolution fractions were re-dissolved by addition of sulphuric acid prior to HPLC analysis. All experiments were performed as triplicate preparations, with results reported as mean values from triplicates, and error bars as single standard deviations from the triplicates.

[4] = Water Vapour Sorption isotherm (25° C.), DVS-1 System; conditions: for water uptake at elevated RH: above 80% RH
Description: as §1
The DSC scan of Form A2 was acquired on a Mettler-Toledo DSC 821 with a heating rate of 5 K/min, using nitrogen purge gas at 50 mL/min. […] Eur. Criteria (section 5.11.). […]
as §2

[5] = Thermodynamic solubility of Forms B1 and B2 in USP Phosphate Buffer (pH 7.4); conditions: for Solid-state Residue (X-Ray-Diffraction): #1 + #2
Description: Approximately 17 mg of Compound C (free base) crystalline form B1 were dispersed in 2 mL USP Phosphate Buffer (pH 7.4) in Whatman Uniprep Syringless Filter vials in duplicate preparations.
Approximately 17 mg of Compound C (free base) crystalline form B2 were dispersed in 2 mL USP Phosphate Buffer (pH 7.4) in Whatman Uniprep Syringless Filter vials in duplicate preparations.
(§3) All dispersions were agitated at 37° C. for 24 hours. Dispersions were then filtered via the internal filter of the Uniprep vials, and clear filtrates were analysed by HPLC for dissolved quantities of Compound C.
(§4) Solid state residues were analysed by X-Ray-Diffraction for identity with the initially used materials.

[6] = Solubility determinations of HCl salt forms vs. free base (DI water, 0.1 N HCl); conditions: for Solid-state Residue (X-Ray-Diffraction) / Solubility: 37° C., 24 hours
Description: as §3, §4

[7] = relative humidity (RH) range 0-80% RH
[8] = USP phosphate buffer (pH 7.4), 37° C., 24 hours
[9] = 0.1N HCl, listed as Free Base Form B1
[10] = 0.1N HCl, listed as HCl salt Form A2
[11] = 0.1N HCl, listed as HCl salt Form A1

thermal stability [1]	hygroscopicity (classification acc. to Ph. Eur. criteria, section 5.11.) [4]	water uptake at elevated RH [4]	water uptake levels [4, 7]	Solid-state Residue (X-Ray-Diffraction) [5, 8]	Solid-state Residue (X-Ray-Diffraction) ([6]; Water)	dissolution kinetics as compared to forms B1 and B2 [3]	dissolution in various buffer systems [3]	aqueous solubility compared to the free base [6]	solubility as compared to forms B1 and B2 [6]	Solubility ([6]; 0.1N HCl)	Solubility ([6]; DI Water)	SMILES	further results
sufficient	slightly hygroscopic	slightly enhanced	< 1 wt %	Free Base Form B1	Free base Form B1	–	–	–	–	–	–	O=C(NC[C@H](O)CO)c1ccncc1Nc1ccc(I)cc1F [Form B1, N—((S)-2,3-Dihydroxy-propyl)-3-(2-fluoro-4-iodo-phenylamino)-isonicotinamide]	thermodynamic stability of free base forms B1 vs B2 [2]: thermodynamically more stable free base form; also recorded: thermodynamically stable; thermodynamic stability of free base forms B1 vs B2 ([2]; listed as form B1): more stable form; % dissolved levels after 30 minutes ([3]; pH 1.2, 37° C., listed as Free base Form B1): 100%; % dissolved levels after 30 minutes ([3]; pH 3.0, 37° C., listed as Free base Form B1): 83%; % dissolved levels after 30 minutes ([3]; pH 5.0, 37° C., listed as Free base Form B1): 57%; % dissolved levels after 30 minutes ([3]; pH 6.8, 37° C., listed as Free base Form B1): 52%; solubility at 24 h ([5]; USP phosphate buffer, 37 °C, pH 7.4, aqueous buffer, thermodynamic from solid, USP phosphate buffer (pH 7.4), 24 hours, duplicate preparations #1, #2): ~50 µg/mL (≈ 116 µM); Solid-state Residue (X-Ray-Diffraction) [6, 9]: HCI salt Form A1; Solubility [6, 9]: 17.5 mg/mL; Solubility ([6]; DI Water, listed as Free Base Form B1): <0.1 mg/mL
sufficient	slightly hygroscopic	–	–	–	Free base Form B1	faster	rapid and complete dissolution	significantly improved	higher	> 20 mg/mL	approx. 2.5 mg/mL	O=C(NC[C@H](O)CO)c1ccncc1Nc1ccc(I)cc1F [Form A2, N—((S)-2,3-Dihydroxy-propyl)-3-(2-fluoro-4-iodo-phenylamino)-isonicotinamide]	% dissolved levels after 30 minutes ([3]; pH 1.2, 37° C., listed as HCl Salt Form A2): 99%; % dissolved levels after 30 minutes ([3]; pH 3.0, 37° C., listed as HCl Salt Form A2): 100%; % dissolved levels after 30 minutes ([3]; pH 5.0, 37° C., listed as HCl Salt Form A2): 98%; % dissolved levels after 30 minutes ([3]; pH 6.8, 37° C., listed as HCl Salt Form A2): 96%; Water Vapour Sorption behaviour [4]: small water uptake levels only; Solid-state Residue (X-Ray-Diffraction) [6, 10]: No residue obtained; Solubility [6, 10]: >20 mg/mL; Solubility ([6]; DI Water, listed as HCl salt Form A2): 2.5 mg/mL
sufficient	slightly hygroscopic	slightly enhanced	~1 wt %	Free Base Form B1	–	–	–	–	–	–	–	O=C(NC[C@H](O)CO)c1ccncc1Nc1ccc(I)cc1F [Form B2, N—((S)-2,3-Dihydroxy-propyl)-3-(2-fluoro-4-iodo-phenylamino)-isonicotinamide]	supersaturated solubility level compared to form B1 ([5]; PBS buffer pH 7.4, 37° C.): increased; Solubility ([5]; USP phosphate buffer (pH 7.4), 37° C., 24 hours, duplicate preparations #1, #2): approx. 70 μg/mL

SMILES	thermal stability [1]	hygroscopicity (classification acc. to Ph. Eur. criteria, section 5.11.) [4]	water uptake at elevated RH [4]	water uptake levels [4, 7]	Solid-state Residue (X-Ray-Diffraction) [5, 8]	Solid-state Residue (X-Ray-Diffraction) ([6]; Water)	dissolution kinetics as compared to forms B1 and B2 [3]	dissolution in various buffer systems [3]	aqueous solubility compared to the free base [6]	solubility as compared to forms B1 and B2 [6]	Solubility ([6]; 0.1N HCl)	Solubility ([6]; DI Water)	further results
O=C(NC[C@H](O)CO)c1ccncc1Nc1ccc(I)cc1F [Form A1, N—((S)-2,3-Dihydroxy-propyl)-3-(2-fluoro-4-iodo-phenylamino)-isonicotinamide]	sufficient	non-hygroscopic; also recorded: slightly hygroscopic	–	–	–	Free base Form B1	faster	rapid and complete dissolution	significantly improved	higher	approx. 44 mg/mL	approx. 2.8 mg/mL	% dissolved levels after 30 minutes ([3]; pH 1.2, 37° C., listed as HCl Salt Form A1): 100%; % dissolved levels after 30 minutes ([3]; pH 3.0, 37° C., listed as HCl Salt Form A1): 100%; % dissolved levels after 30 minutes ([3]; pH 5.0, 37° C., listed as HCl Salt Form A1): 97%; % dissolved levels after 30 minutes ([3]; pH 6.8, 37° C., listed as HCl Salt Form A1): 96%; water uptake levels ([4]; entire relative humidity range 0-98% RH): < 0.1 wt %; Solid-state Residue (X-Ray-Diffraction) [6, 11]: HCl salt Form A1; Solubility [6, 11]: 43.6 mg/mL; Solubility ([6]; DI Water, listed as HCl salt Form A1): 2.8 mg/mL
